From ChEMBL document CHEMBL1157728, “Novel small molecule bradykinin B1 receptor antagonists. Part 2: 5-membered diaminoheterocycles” (Bioorg Med Chem Lett, 2010)
Values after ≈ are worked out from the molar mass of the structure shown.

Assays:
[1] = target: T1, B1 bradykinin receptor (Homo sapiens, UniProt P46663); assay: Antagonist activity at bradykinin B1 receptor in human IMR90 cells pretreated with IL1-beta assessed as inhibition of DAKD-induced calcium mobilization; type: functional, cell-based, IMR-90
T1 sequence (P46663 whole entry): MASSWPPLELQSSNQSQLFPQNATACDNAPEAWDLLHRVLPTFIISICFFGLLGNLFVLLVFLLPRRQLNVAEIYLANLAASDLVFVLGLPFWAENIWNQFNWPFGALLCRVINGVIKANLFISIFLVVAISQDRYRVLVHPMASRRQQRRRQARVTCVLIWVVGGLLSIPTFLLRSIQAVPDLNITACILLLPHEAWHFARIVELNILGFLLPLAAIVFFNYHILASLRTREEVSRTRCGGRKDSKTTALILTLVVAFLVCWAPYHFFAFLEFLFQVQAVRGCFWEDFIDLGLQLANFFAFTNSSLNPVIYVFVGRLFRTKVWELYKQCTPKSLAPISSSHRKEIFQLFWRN

[2] = Solubility in water; type: physicochemical
[3] = Efflux ratio of permeability from basolateral to apical side to apical to basolateral side in human Caco-2 cells; type: ADME, cell-based
[4] = Solubility in aqueous buffer; type: physicochemical
[5] = Solubility of the compound; type: physicochemical
[6] = Metabolic stability in human liver microsomes assessed as compound remaining after 1 hr; type: ADME, Microsome; conditions: read-out: Stability
[7] = Apparent permeability from apical to basolateral side of human Caco-2 cells; type: ADME, cell-based; conditions: read-out: permeability

Structure (SMILES)	IC50 [1] [nM]	other results
CC(=O)Nn1c(Cl)cnc1NCc1ccc(-c2cc(Cl)cc(F)c2-c2noc(C)n2)cc1F	0.3	
CC(=O)Nn1ccnc1NCc1ccc(-c2cc(Cl)cc(F)c2-c2noc(C)n2)cc1F	1.6	
COc1cc(C(=O)Nn2ccnc2NCc2ccc(-c3cc(Cl)cc(F)c3-c3noc(C)n3)cc2F)on1	1.7	solubility [2]: 42 µM (≈ 22.8 µg/mL)
CC(=O)Nn1c(NCc2ccc(-c3cc(Cl)cc(F)c3-c3noc(C)n3)cc2F)nc(C)c1C	180	
CC(=O)Nc1nsnc1NCc1ccc(-c2cc(Cl)cc(F)c2-c2noc(C)n2)cc1F	1.7	
COc1cc(C(=O)Nn2c(NCc3ccc(-c4cc(Cl)cc(F)c4-c4noc(C)n4)cc3F)nc(C)c2C)on1	85	solubility [2]: 40 µM (≈ 22.8 µg/mL)
CC(=O)Nc1nonc1NCc1ccc(-c2cc(Cl)cc(F)c2-c2noc(C)n2)cc1F	7.7	solubility [5]: 21 µM (≈ 9.68 µg/mL)
COc1cc(C(=O)Nc2cn[nH]c2NCc2ccc(-c3cc(Cl)cc(F)c3-c3noc(C)n3)cc2F)on1	3.5	
COc1cc(C(=O)Nc2nonc2NCc2ccc(-c3cc(Cl)cc(F)c3-c3noc(C)n3)cc2F)on1	1	efflux ratio [3]: 1; remaining at 1 h [6]: 61%; Papp A→B [7]: 48 ×10⁻⁶ cm/s; solubility [5]: 12 µM (≈ 6.53 µg/mL)
COc1cc(C(=O)Nc2nsnc2NCc2ccc(-c3cc(Cl)cc(F)c3-c3noc(C)n3)cc2F)on1	0.6	

Further lines, with some results ahead:

IC50 [1] [nM]	Structure (SMILES)	other results
6100	COC(=O)c1c(F)cccc1-c1ccc(CN2Cc3ccccc3C2=O)c(F)c1	
3500	COC(=O)c1c(F)cccc1-c1ccc(CNc2nc3ccccc3[nH]2)c(F)c1	
4.6	CC(=O)Nn1c(NCc2ccc(-c3cc(Cl)cc(F)c3-c3noc(C)n3)cc2F)nc2ccccc21	solubility [2]: 40 µM (≈ 20.4 µg/mL)
35000	COC(=O)c1c(F)cccc1-c1ccc(CNC(C)=O)c(F)c1	
0.7	COc1cc(C(=O)Nn2c(NCc3ccc(-c4cc(Cl)cc(F)c4-c4noc(C)n4)cc3F)nc3ccccc32)on1	efflux ratio [3]: 7.1; solubility [4]: 14 µM (≈ 8.29 µg/mL)
42000	COC(=O)c1c(F)cccc1-c1ccc(CN2CCCC2=O)c(F)c1	
